Measured values: ChEMBL document CHEMBL4715817, “Python Cathelicidin CATHPb1 Protects against Multidrug-Resistant Staphylococcal Infections by Antimicrobial-Immunomodulatory Duality” (J Med Chem, 2018)
Calls of active or inactive are those of the source. No cut-off for these calls is given here. Peptide text beside a SMILES is read from it.

What was measured:
Macrophage [1] = assay: Immunomodulatory activity in mouse peritoneal macrophage assessed as inhibition of LPS-induced MCP-1 level at 5 to 20 ug/ml measured after 6 hrs by qRT-PCR analysis; type: functional, tissue-based; settings: dose 5-20 µg/ml
Macrophage [2] = assay: Immunomodulatory activity in mouse peritoneal macrophage assessed as inhibition of LPS-induced IL-1beta level at 5 to 20 ug/ml measured after 24 hrs by ELISA; type: functional, tissue-based; settings: dose 5-20 µg/ml
Macrophage [3] = assay: Immunomodulatory activity in mouse peritoneal macrophage assessed as inhibition of LPS-induced IL-6 level at 5 to 20 ug/ml measured after 6 hrs by qRT-PCR analysis; type: functional, tissue-based; settings: dose 5-20 µg/ml
Macrophage [4] = assay: Immunomodulatory activity in mouse peritoneal macrophage assessed as inhibition of LPS-induced IL-6 level at 5 to 20 ug/ml measured after 24 hrs by ELISA; type: functional, tissue-based; settings: dose 5-20 µg/ml
Macrophage [5] = assay: Immunomodulatory activity in mouse peritoneal macrophage assessed as inhibition of LPS-induced TNF-alpha level at 5 to 20 ug/ml measured after 24 hrs by ELISA; type: functional, tissue-based; settings: dose 5-20 µg/ml
Macrophage [6] = assay: Immunomodulatory activity in mouse peritoneal macrophage assessed as inhibition of LPS-induced TNF-alpha level at 5 to 20 ug/ml measured after 6 hrs by qRT-PCR analysis; type: functional, tissue-based; settings: dose 5-20 µg/ml
Macrophage [7] = assay: Immunomodulatory activity in mouse peritoneal macrophage assessed as inhibition of LPS-induced IL-1beta level at 5 to 20 ug/ml measured after 6 hrs by qRT-PCR analysis; type: functional, tissue-based; settings: dose 5-20 µg/ml
Macrophage [8] = assay: Immunomodulatory activity in mouse peritoneal macrophage assessed as inhibition of LPS-induced MCP-1 level at 5 to 20 ug/ml measured after 24 hrs by ELISA; type: functional, tissue-based; settings: dose 5-20 µg/ml
Macrophage [9] = assay: Immunomodulatory activity in mouse peritoneal macrophage assessed as inhibition of LPS-induced IL-1beta level at 20 ug/ml measured after 24 hrs by ELISA; type: functional, tissue-based; settings: dose 20.0 µg/ml
Macrophage [10] = assay: Immunomodulatory activity in mouse peritoneal macrophage assessed as inhibition of LPS-induced TNF-alpha level at 20 ug/ml measured after 6 hrs by qRT-PCR analysis; type: functional, tissue-based; settings: dose 20.0 µg/ml
Macrophage [11] = assay: Immunomodulatory activity in mouse peritoneal macrophage assessed as inhibition of LPS-induced IL-6 level at 20 ug/ml measured after 6 hrs by qRT-PCR analysis; type: functional, tissue-based; settings: dose 20.0 µg/ml
Macrophage [12] = assay: Immunomodulatory activity in mouse peritoneal macrophage assessed as inhibition of LPS-induced TNF-alpha level at 20 ug/ml measured after 24 hrs by ELISA; type: functional, tissue-based; settings: dose 20.0 µg/ml
Macrophage [13] = assay: Immunomodulatory activity in mouse peritoneal macrophage assessed as inhibition of LPS-induced IL-6 level at 20 ug/ml measured after 24 hrs by ELISA; type: functional, tissue-based; settings: dose 20.0 µg/ml
Macrophage [14] = assay: Immunomodulatory activity in mouse peritoneal macrophage assessed as inhibition of LPS-induced IL-1beta level at 20 ug/ml measured after 6 hrs by qRT-PCR analysis; type: functional, tissue-based; settings: dose 20.0 µg/ml
[15] = Immunomodulatory activity in mouse peritoneal macrophage assessed as inhibition of LPS-induced IL-6 level measured after 24 hrs by ELISA; type: functional; set-up: scale not given: the % may be the effect or the level left; settings: dose 5-20 µg/ml, at 5 to 20 µg/mL
Staphylococcus aureus = assay: In vivo antibacterial activity against methicillin sensitive Staphylococcus aureus ATCC 25923 infected in kunming mouse assessed as increase in survival rate at 10 mg/kg, ip administered 4 hrs after infection and measured up to 7 days after infection relative to control; type: functional; settings: time day <=7

Row | SMILES | inhibition (Macrophage [1]) | inhibition (Macrophage [2]) | inhibition (Macrophage [3]) | inhibition (Macrophage [4]) | inhibition (Macrophage [5]) | inhibition (Macrophage [6]) | inhibition (Macrophage [7]) | inhibition (Macrophage [8]) | inhibition (Macrophage [9]) | inhibition (Macrophage [10]) | inhibition (Macrophage [11]) | inhibition (Macrophage [12]) | inhibition (Macrophage [13]) | inhibition (Macrophage [14]) | Activity [15] | Activity (Staphylococcus aureus)
1 | CC[C@H](C)[C@H](NC(=O)[C@H](CO)NC(=O)[C@H](CO)NC(=O)CNC(=O)CNC(=O)CNC(=O)[C@H](C)NC(=O)[C@H](Cc1ccccc1)NC(=O)[C@H](Cc1ccccc1)NC(=O)[C@H](CCCCN)NC(=O)[C@H](CCCCN)NC(=O)[C@H](CC(C)C)NC(=O)[C@H](CCCNC(=N)N)NC(=O)[C@H](CCCNC(=N)N)NC(=O)[C@H](CCSC)NC(=O)[C@H](Cc1ccccc1)NC(=O)[C@H](CCCCN)NC(=O)[C@H](CCCNC(=N)N)NC(=O)[C@H](Cc1ccccc1)NC(=O)CNC(=O)[C@H](CC(N)=O)NC(=O)[C@H](CCCNC(=N)N)NC(=O)[C@@H](N)CCCCN)C(=O)N[C@@H](C)C(=O)N[C@@H](Cc1cnc[nH]1)C(=O)N[C@H](C(=O)N[C@@H](CCCCN)C(=O)N[C@@H](CC(C)C)C(=O)N[C@@H](Cc1cnc[nH]1)C(=O)O)[C@@H](C)CC (H-KRNGFRKFMRRLKKFFAGGGSSIAHIKLH-OH) | Active | Active | Active | Active | Active | Active | Active | Active | – | – | – | – | – | – | – | –
2 | CSCC[C@H](NC(=O)[C@H](C)NC(=O)[C@H](CCCNC(=N)N)NC(=O)[C@H](CC(C)C)NC(=O)[C@H](CCCNC(=N)N)NC(=O)[C@H](CCCNC(=N)N)NC(=O)[C@H](CCC(N)=O)NC(=O)[C@@H]1CCCN1C(=O)[C@H](C)NC(=O)[C@H](C)NC(=O)[C@@H](N)CCCNC(=N)N)C(=O)N[C@@H](C)C(=O)N[C@@H](CCCNC(=N)N)C(=O)N[C@@H](CC(C)C)C(=O)N[C@@H](CCCCN)C(=O)N[C@@H](CCCCN)C(=O)N[C@@H](Cc1ccccc1)C(=O)N[C@@H](C)C(=O)N[C@@H](CCC(=O)O)C(=O)N[C@@H](C)C(=O)NCC(=O)NCC(=O)N[C@@H](C)C(=O)N[C@@H](CC(=O)O)C(=O)N1CCC[C@H]1C(=O)N[C@@H](CC(=O)O)C(=O)N[C@@H](CO)C(=O)NCC(=O)NCC(=O)N[C@@H](CC(C)C)C(=O)N[C@@H](CCCNC(=N)N)C(=O)N[C@@H](C)C(=O)N[C@@H](CCCNC(=N)N)C(=O)N[C@@H](Cc1ccccc1)C(=O)N1CCC[C@H]1C(=O)N[C@@H](CCC(=O)O)C(=O)N[C@@H](CCCNC(=N)N)C(=O)O (H-RAAPQRRLRAMARLKKFAEAGGADPDSGGLRARFPER-OH) | – | – | – | – | – | – | – | – | Active | Active | Active | Active | Active | Active | – | –
3 | CC[C@H](C)[C@H](NC(=O)[C@H](CCCNC(=N)N)NC(=O)[C@H](Cc1c[nH]c2ccccc12)NC(=O)CNC(=O)[C@H](Cc1ccc(O)cc1)NC(=O)[C@H](CCCNC(=N)N)NC(=O)[C@H](CCCNC(=N)N)NC(=O)[C@H](C)NC(=O)[C@H](Cc1ccccc1)NC(=O)[C@H](CCCNC(=N)N)NC(=O)CNC(=O)[C@H](C)NC(=O)CNC(=O)[C@H](CCCNC(=N)N)NC(=O)[C@@H](NC(=O)[C@H](Cc1ccccc1)NC(=O)[C@H](CCCNC(=N)N)NC(=O)[C@H](CCCNC(=N)N)NC(=O)[C@H](Cc1c[nH]c2ccccc12)NC(=O)[C@H](CCCNC(=N)N)NC(=O)[C@H](CO)NC(=O)[C@H](CCCNC(=N)N)NC(=O)[C@@H](N)[C@@H](C)O)[C@@H](C)CC)C(=O)N[C@@H](C)C(=O)N[C@@H](CC(C)C)C(=O)NCC(=O)N[C@@H](CC(C)C)C(=O)N[C@H](C(=O)NCC(=O)O)C(C)C (H-TRSRWRRFIRGAGRFARRYGWRIALGLVG-OH) | Active | Active | Active | Active | Active | Active | Active | Active | – | – | – | – | – | – | 65.59% | –
4 | CN[C@H](CC(C)C)C(=O)N[C@H]1C(=O)N[C@@H](CC(N)=O)C(=O)N[C@H]2C(=O)N[C@H]3C(=O)N[C@H](C(=O)N[C@H](C(=O)O)c4cc(O)cc(O)c4-c4cc3ccc4O)[C@H](O)c3ccc(c(Cl)c3)Oc3cc2cc(c3O[C@@H]2O[C@H](CO)[C@@H](O)[C@H](O)[C@H]2O[C@H]2C[C@](C)(N)[C@H](O)[C@H](C)O2)Oc2ccc(cc2Cl)[C@H]1O [VANCOMYCIN] | – | – | – | – | – | – | – | – | – | – | – | – | – | – | – | 35%
